Results as given in patent US8735611B2, “Crystalline forms of cabazitaxel” (ScinoPharm Taiwan, Ltd., priority 2011, dated 2014).

Experiment: Dynamic vapor sorption (DVS) analysis
Format: physicochemical
Settings: over 2 cycles tested; consistent with loss of AcOH upon dehumidification, confirmed by 1H NMR after DVS
Description: XRPD analysis confirmed that Form C9 is crystalline. […] (FIG. 10c). Decomposition occurs at about 220° C., as indicated by the large weight loss observed by TGA around this temperature. […] This was confirmed by ^1H NMR spectroscopy after DVS analysis. KF titration of Form C9 indicated the presence of about 2.3% water.
A hot solution of cabazitaxel (0.1 g) in 1 mL of AcOH and 0.5 mL of H2O was slowly cooled to room temperature. The mixture was filtered and the resulting solids were dried in a vacuum oven to give cabazitaxel Form C9 as a white solid (melting point: 152.5-159.3° C.). […] This was consistent with a loss of AcOH upon dehumification, which was confirmed by ^1H NMR spectroscopic analysis after the DVS test.

Compound: CO[C@H]1C(=O)[C@]2(C)[C@@H](OC)C[C@H]3OC[C@@]3(OC(C)=O)[C@H]2[C@H](OC(=O)c2ccccc2)[C@]2(O)C[C@H](OC(=O)[C@H](O)[C@@H](NC(=O)OC(C)(C)C)c3ccccc3)C(C)=C1C2(C)C [Form C9, cabazitaxel]
- weight loss and gain upon changing humidity (DVS): non-perfectly reversible weight loss and gain upon changing humidity
